27 molecules from patent US20240239781A1, “1H-PYRAZOLE DERIVATIVES AS SIGMA LIGANDS” (ACONDICIONAMIENTO TARRASENSE, priority 2021, published 2024) can be followed below.

One may read the Ki as a measure of affinity in units of concentration, obtained from inhibition or displacement.

One experiment addresses T1, human σ1 receptor (Homo sapiens, UniProt Q99720).
T1 construct: expressed in transfected cells; host or cells: HEK-293
Description: Human σ1 receptor radioligand assay ([3H](+)-pentazocine, transfected HEK-293 membranes). The following applies: class scale, read-out: Binding σ-1 Ki. The procedure, abridged:
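Compounds were tested at a single 1 or 10 μM concentration (% inhibition) or at five concentrations to give Ki. They competed with 5 nM [3H](+)-pentazocine for transfected HEK-293 membranes (7 μg) in 50 mM Tris-HCl pH 8 at 37° C for 120 minutes. Nonspecific binding was set with 10 μM haloperidol, and a filtration scintillation read-out was used.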

A further experiment has as its target T2, human σ2/TMEM97 receptor (Homo sapiens, UniProt Q5BJF2).
T2 construct: expressed in transfected cells; host or cells: HEK-293
Description: Binding assay to human σ2/TMEM97 receptor ([3H]-DTG, transfected HEK-293 membranes). The following applies: class scale, read-out: Binding σ-2 Ki. Put shortly:
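Competition against 10 nM [3H]-DTG (Tris-HCl 50 mM, pH 8.0, 25 °C, 120 min) using 15 μg transfected HEK-293 membrane protein, with 10 μM haloperidol defining NSB. Bound radioactivity counted after filtration; results as single-point % inhibition (1 or 10 μM) or five-point Ki.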

SMILES strings stand for the structures.

T2 sequence (Q5BJF2 whole entry): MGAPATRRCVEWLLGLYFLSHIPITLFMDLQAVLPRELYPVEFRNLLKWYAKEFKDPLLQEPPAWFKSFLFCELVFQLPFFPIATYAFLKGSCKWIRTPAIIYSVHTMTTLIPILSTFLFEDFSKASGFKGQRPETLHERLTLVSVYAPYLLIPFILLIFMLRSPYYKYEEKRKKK
T1 sequence (Q99720 whole entry): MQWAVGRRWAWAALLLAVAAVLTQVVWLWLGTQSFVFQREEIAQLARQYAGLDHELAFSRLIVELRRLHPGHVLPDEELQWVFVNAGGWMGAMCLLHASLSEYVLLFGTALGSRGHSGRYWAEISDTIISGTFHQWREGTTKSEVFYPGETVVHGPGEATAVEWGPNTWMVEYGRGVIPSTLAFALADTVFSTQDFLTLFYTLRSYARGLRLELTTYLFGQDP

For the molecule `Cn1nc(-c2cccnc2)c(CN2CCCCC(NCCC(C)(C)C)C2)c1Cl` (stereo not drawn) [Example 30, 1-((5-Chloro-1-methyl-3-(pyridin-3-yl)-1H-pyrazol-4-yl)methyl)-N-(3,3-dimethylbutyl)azepan-3-amine], the Ki on human σ1 receptor was 100 to 500 nM; on human σ2/TMEM97 receptor, above 1000 nM.
`CCCn1nc(-c2cc(C)on2)c(C(=O)N2CC3(CCN(CCC(C)(C)C)CC3)C2)c1Cl` [Example 185, (5-Chloro-3-(5-methylisoxazol-3-yl)-1-propyl-1H-pyrazol-4-yl)(7-(3,3-dimethylbutyl)-2,7-diazaspiro[3.5]nonan-2-yl)methanone]: the Ki at human σ1 receptor was 100 to 500 nM; at human σ2/TMEM97 receptor, below 100 nM.
For `Cc1cc(-c2nn(C)c(Cl)c2CN2CCC(CNCCC(C)(C)C)C2)no1` (stereo not drawn) [Example 1, N-((1-((5-Chloro-1-methyl-3-(5-methylisoxazol-3-yl)-1H-pyrazol-4-yl)methyl)pyrrolidin-3-yl)methyl)-3,3-dimethylbutan-1-amine] the same measures were 100 to 500 nM and above 1000 nM.
For `Cc1cc(-c2nn(C)c(Cl)c2CN2CCCCC(NCC3CCOCC3)C2)no1` (stereo not drawn) [Example 4, 1-((5-Chloro-1-methyl-3-(5-methylisoxazol-3-yl)-1H-pyrazol-4-yl)methyl)-N-((tetrahydro-2H-pyran-4-yl)methyl)azepan-3-amine] the same measures were above 1000 nM and 500 to 1000 nM.
For `Cc1cc(-c2nn(C)c(Cl)c2CN2CCCCC(N(C)CCN3CCCCC3)C2)no1` (stereo not drawn) [Example 82, 1-((5-Chloro-1-methyl-3-(5-methylisoxazol-3-yl)-1H-pyrazol-4-yl)methyl)-N-methyl-N-(2-(piperidin-1-yl)ethyl)azepan-3-amine] the same measures were 500 to 1000 nM and 100 to 500 nM.
`CCn1nc(-c2ccon2)c(C(=O)NC2CCC3(CC2)CN(CCC(C)(C)C)C3)c1Cl` [Example 197, 5-Chloro-N-(2-(3,3-dimethylbutyl)-2-azaspiro[3.5]nonan-7-yl)-1-ethyl-3-(isoxazol-3-yl)-1H-pyrazole-4-carboxamide]: the Ki at human σ1 receptor was 100 to 500 nM; on human σ2/TMEM97 receptor, below 100 nM.
For `CCn1nc(-c2cc(C)on2)c(C(=O)NC2CCC3(CC2)CN(CCC(C)(C)C)C3)c1Cl` [Example 134, 5-Chloro-N-(2-(3,3-dimethylbutyl)-2-azaspiro[3.5]nonan-7-yl)-1-ethyl-3-(5-methylisoxazol-3-yl)-1H-pyrazole-4-carboxamide] the same measures were below 100 nM and below 100 nM.
For the molecule `CCn1nc(-c2cc(C)on2)c(CC(=O)N2CCC3(CCN(CCC(C)(C)C)CC3)CC2)c1Cl` [Example 210, 2-(5-Chloro-1-ethyl-3-(5-methylisoxazol-3-yl)-1H-pyrazol-4-yl)-1-(9-(3,3-dimethylbutyl)-3,9-diazaspiro[5.5]undecan-3-yl)ethan-1-one], the Ki on human σ1 receptor is 500 to 1000 nM; on human σ2/TMEM97 receptor it was below 100 nM.
Consider `CCc1cc(-c2nn(C)c(Cl)c2CN2CCCCC(NCCC(C)(C)C)C2)no1` (stereo not drawn) [Example 20, 1-((5-Chloro-3-(5-ethylisoxazol-3-yl)-1-methyl-1H-pyrazol-4-yl)methyl)-N-(3,3-dimethylbutyl)azepan-3-amine], for which the Ki at human σ1 receptor and at human σ2/TMEM97 receptor was 100 to 500 nM throughout.
Turning to `Cc1cc(-c2nn(C)c(Cl)c2CN2C[C@@H](CNCCC(C)(C)C)[C@H](C)C2)no1` [Example 77, N-(((3R,4S)-1-((5-Chloro-1-methyl-3-(5-methylisoxazol-3-yl)-1H-pyrazol-4-yl)methyl)-4-methylpyrrolidin-3-yl)methyl)-3,3-dimethylbutan-1-amine], the Ki on human σ1 receptor was 100 to 500 nM; at human σ2/TMEM97 receptor it was below 100 nM.
As to `Cc1cc(-c2nn(C)c(Cl)c2C(=O)N2CCCC3(CCN(Cc4ccccc4)CC3)C2)no1` [Example 156, (9-Benzyl-2,9-diazaspiro[5.5]undecan-2-yl)(5-chloro-1-methyl-3-(5-methylisoxazol-3-yl)-1H-pyrazol-4-yl)methanone], the inhibitory constant (Ki) at human σ1 receptor was 100 to 500 nM; at human σ2/TMEM97 receptor it was below 100 nM.
With `CC(C)c1cc(-c2nn(C)c(Cl)c2CN2CCCCC(NCCC(C)(C)C)C2)no1` (stereo not drawn) [Example 15, 1-((5-Chloro-3-(5-isopropylisoxazol-3-yl)-1-methyl-1H-pyrazol-4-yl)methyl)-N-(3,3-dimethylbutyl)azepan-3-amine], the Ki on human σ1 receptor is 100 to 500 nM; on human σ2/TMEM97 receptor, above 1000 nM.
For `Cc1cc(-c2nn(C)c(Cl)c2CN2CC3(CCN(CCC(C)(C)C)CC3)CC2=O)no1` [Example 116, 2-((5-Chloro-1-methyl-3-(5-methylisoxazol-3-yl)-1H-pyrazol-4-yl)methyl)-8-(3,3-dimethylbutyl)-2,8-diazaspiro[4.5]decan-3-one] the same measures were 100 to 500 nM and below 100 nM.
On to `CCn1cc(-c2nn(C)c(Cl)c2C(=O)NC2CC3(CCN(CCC(C)(C)C)CC3)C2)cn1` [Example 145, 5-Chloro-N-(7-(3,3-dimethylbutyl)-7-azaspiro[3.5]nonan-2-yl)-1′-ethyl-1-methyl-1H,1′H-[3,4′-bipyrazole]-4-carboxamide], for which the Ki at human σ1 receptor is 500 to 1000 nM; on human σ2/TMEM97 receptor, below 100 nM.
On to `Cn1nc(-c2cccc(C(F)(F)F)n2)c(C(=O)NC2CCC3(CC2)CCN(CCC(C)(C)C)CC3)c1Cl` [Example 147, 5-Chloro-N-(3-(3,3-dimethylbutyl)-3-azaspiro[5.5]undecan-9-yl)-1-methyl-3-(6-(trifluoromethyl)pyridin-2-yl)-1H-pyrazole-4-carboxamide], for which the Ki at human σ1 receptor and on human σ2/TMEM97 receptor was below 100 nM throughout.
For the molecule `Cc1cc(-c2nn(C)c(Cl)c2CN2CCC[C@H](NCCC(C)C)C2)no1` [Example 6, (S)-1-((5-Chloro-1-methyl-3-(5-methylisoxazol-3-yl)-1H-pyrazol-4-yl)methyl)-N-isopentylpiperidin-3-amine], the Ki on human σ1 receptor is 100 to 500 nM; at human σ2/TMEM97 receptor, above 1000 nM.
For `Cc1onc(-c2nn(C)c(Cl)c2CN2CCCCC(NCCC(C)(C)C)C2)c1C` (stereo not drawn) [Example 38, 1-((5-Chloro-3-(4,5-dimethylisoxazol-3-yl)-1-methyl-1H-pyrazol-4-yl)methyl)-N-(3,3-dimethylbutyl)azepan-3-amine] the same measures were 100 to 500 nM and 100 to 500 nM.
For `CCn1nc(-c2cc(C)on2)c(C(=O)NCC2CCN(CCC(C)(C)C)CC2)c1Cl` [Example 203, 5-Chloro-N-((1-(3,3-dimethylbutyl)piperidin-4-yl)methyl)-1-ethyl-3-(5-methylisoxazol-3-yl)-1H-pyrazole-4-carboxamide] the same measures were 100 to 500 nM and below 100 nM.
As for `Cc1cc(-c2nn(C)c(Cl)c2CN2CC[C@]3(C2)C[C@@H](NCCC(C)(C)C)C3)no1` [Example 76], the Ki at human σ1 receptor and at human σ2/TMEM97 receptor was 100 to 500 nM each time.
As to `CCc1cc(-c2nn(C)c(Cl)c2CN2CCCCC(NCCC(C)C)C2)no1` (stereo not drawn) [Example 21, 1-((5-Chloro-3-(5-ethylisoxazol-3-yl)-1-methyl-1H-pyrazol-4-yl)methyl)-N-isopentylazepan-3-amine], the Ki at human σ1 receptor was in the range of 500 to 1000 nM; on human σ2/TMEM97 receptor, 100 to 500 nM.
Take `CCc1cc(-c2nn(C)c(Cl)c2C(=O)N2CCC3(CCN(CCC(C)(C)C)CC3)CC2)no1` [Example 97, (5-Chloro-3-(5-ethylisoxazol-3-yl)-1-methyl-1H-pyrazol-4-yl)(9-(3,3-dimethylbutyl)-3,9-diazaspiro[5.5]undecan-3-yl)methanone]: the Ki was 100 to 500 nM at human σ1 receptor and below 100 nM on human σ2/TMEM97 receptor.
For `CCn1nc(-c2cc(C)on2)c(C(=O)NC2CCN(CCC(C)(C)C)CC2)c1Cl` [Example 159, 5-Chloro-N-(1-(3,3-dimethylbutyl)piperidin-4-yl)-1-ethyl-3-(5-methylisoxazol-3-yl)-1H-pyrazole-4-carboxamide] the same measures were below 100 nM and below 100 nM.
For `Cc1conc1-c1nn(C)c(Cl)c1CN1CCCCC(NCCC(C)(C)C)C1` (stereo not drawn) [Example 27, 1-((5-Chloro-1-methyl-3-(4-methylisoxazol-3-yl)-1H-pyrazol-4-yl)methyl)-N-(3,3-dimethylbutyl)azepan-3-amine] the same measures were 100 to 500 nM and below 100 nM.
For `Cc1conc1-c1nn(C)c(Cl)c1C(=O)N1CCCC2(CCN(CCC(C)(C)C)CC2)C1` [Example 103, (5-Chloro-1-methyl-3-(4-methylisoxazol-3-yl)-1H-pyrazol-4-yl)(9-(3,3-dimethylbutyl)-2,9-diazaspiro[5.5]undecan-2-yl)methanone] the same measures were 500 to 1000 nM and below 100 nM.
Regarding `CCn1nc(-c2ccon2)c(C(=O)NC2CC3(CCN(CCC(C)(C)C)CC3)C2)c1Cl` [Example 139, 5-Chloro-N-(7-(3,3-dimethylbutyl)-7-azaspiro[3.5]nonan-2-yl)-1-ethyl-3-(isoxazol-3-yl)-1H-pyrazole-4-carboxamide], the Ki on human σ1 receptor was 100 to 500 nM; on human σ2/TMEM97 receptor, below 100 nM.
As for `Cc1cc(-c2nn(C)c(Cl)c2C(=O)N2CCC3(CCC(NCCC(C)(C)C)CC3)CC2)no1` [Example 96, (5-Chloro-1-methyl-3-(5-methylisoxazol-3-yl)-1H-pyrazol-4-yl)(9-((3,3-dimethylbutyl)amino)-3-azaspiro[5.5]undecan-3-yl)methanone], the results for the Ki at human σ1 receptor and on human σ2/TMEM97 receptor were above 1000 nM and 100 to 500 nM, respectively.
For `Cn1nc(-c2cccc(C(F)(F)F)n2)c(C(=O)N2CCC3(CCN(CCC(C)(C)C)CC3)CC2)c1Cl` [Example 180, (5-Chloro-1-methyl-3-(6-(trifluoromethyl)111ndecane-2-yl)-1H-pyrazol-4-yl)(9-(3,3-dimethylbutyl)-3,9-diazaspiro[5.5]111ndecane-3-yl)methanone] the same measures were 100 to 500 nM and below 100 nM.
